Measured values: patent publication US20090011410A1, “METHOD FOR TAILORING ADMINISTRATION OF DRUGS BY QUANTITATION OF MRNA” (priority 2004, published 2009)

Test system: PUMA mRNA
Assay: drug-induced PUMA mRNA expression in whole blood of leukemia and lymphoma patients
Format: cell-based, human
Settings: 2 hours at 37° C.
[1] = AML patient, drug concentrations of b94 (FIG. 8B)

| Compound | PUMA induction [1] | PUMA induction (CLL patient, drug concentrations of b94 (FIG. 8A)) | PUMA response (NHL patient, drug concentrations (FIG. 8C)) |
| --- | --- | --- | --- |
| [NH2][Pt]([NH2])([Cl])[Cl] [CDDP, cisplatin] | huge induction | – | – |
| COc1cccc2c1C(=O)c1c(O)c3c(c(O)c1C2=O)C[C@@](O)(C(C)=O)C[C@@H]3O[C@H]1C[C@H](N)[C@H](O)[C@H](C)O1 [DNR, daunorubicin] | – | induced | – |
| Cc1c(N)nc([C@H](CC(N)=O)NC[C@H](N)C(N)=O)nc1C(=O)N[C@H](C(=O)N[C@H](C)[C@@H](O)[C@H](C)C(=O)N[C@H](C(=O)NCCc1nc(-c2nc(C(=O)NCCCN[C@@H](C)c3ccccc3)cs2)cs1)[C@@H](C)O)[C@@H](O[C@@H]1O[C@@H](CO)[C@@H](O)[C@H](O)[C@@H]1O[C@H]1O[C@H](CO)[C@@H](O)[C@H](OC(N)=O)[C@@H]1O)c1c[nH]cn1 [PEP, peplomycin] | huge induction | – | – |
| CN(Cc1cnc2nc(N)nc(N)c2n1)c1ccc(C(=O)N[C@@H](CCC(=O)O)C(=O)O)cc1 [MTX, methotrexate] | huge induction | – | strong PUMA response |
